Source: patent US8324234B2, “Method for inhibiting melanin production and whitening skin with pyrimidylpyrazole compounds or pharmaceutically acceptable salts thereof” (Shiseido Company Ltd., priority 2008, dated 2012)

Tested on: Mouse B16 melanoma cells
Test: Melanin production inhibition test (quantification of melanin)
Format: cell-based
Settings: for Inhibitory effect on melanin production: class of minimum non-cytotoxic concentration giving melanin amount 80% or less of solvent group, B16 cells, three days after addition; for Minimum concentration (%): minimum concentration at which an inhibitory effect on melanin production was significantly exhibited in melanoma B16 cells
Experimental: A test for melanin production inhibition by the compounds of the formula (1) was conducted. The test method is as follows.
Melanin Production Inhibition Test
(1) Inoculation of Cells and Addition of Test Substances
Mouse B16 melanoma cells were inoculated in a six well plate at 100,000 cells/well. The next day, test substance solutions (solvent: DMSO) were added.
(3) Quantification of Melanin
The cells after the cell proliferation test were washed with PBS three times, and then lysed by addition of 200 μL of 1M NaOH to measure an absorbance at 475 nm. Using the value thus measured as a relative value of the melanin amount, a ratio of the melanin amount (%) of the test substance-added group to the test substance-absent group (group in which only the solvent was added) was calculated. The lower the ratio of the melanin amount, the higher the melanin production-inhibitory effect. […] The inhibitory effect on melanin production was evaluated according to the following criteria.
⊚: the minimum concentration for inhibition of melanin production was 1 ppm or less.
◯: the minimum concentration for inhibition of melanin production was more than 1 ppm and 10 ppm or less.

SMILES	Inhibitory effect on melanin production	Minimum concentration (%)
Cc1cc(C)nc(-n2nc(C)c(C)c2C)n1 [Compound 4]	⊚ (the minimum concentration for inhibition of melanin production was 1 ppm or less)	3 × 10^−6%
CCc1cc(CC)n(-c2nc(C)cc(C)n2)n1 [Compound 3]	⊚ (the minimum concentration for inhibition of melanin production was 1 ppm or less)	3 × 10^−6%
Cc1cc(C)nc(-n2nc(C)cc2C)n1 [Compound 1, 2-(3,5-dimethylpyrazol-1-yl)-4,6-dimethylpyrimidine]	⊚ (the minimum concentration for inhibition of melanin production was 1 ppm or less)	1 × 10^−6%
Cc1cc(C)nc(-n2nc(C)cc2C)n1.Cl [Compound 2, 2-(3,5-dimethylpyrazol-1-yl)-4,6-dimethylpyrimidine hydrochloride]	⊚ (the minimum concentration for inhibition of melanin production was 1 ppm or less)	–
Cc1cc(C)n(-c2nc(C)c(C)c(C)n2)n1 [Compound 5, 2-(3,5-dimethylpyrazol-1-yl)-4,5,6-trimethylpyrimidine]	⊚ (the minimum concentration for inhibition of melanin production was 1 ppm or less)	–
